{
  "source": "patent US20060204975A1",
  "about": "“Markers for cyclin dependent kinase inhibitors” (Cyclacel Limited, priority 2003, published 2006)",
  "key": {"cell cycle progression": {"test_system": "cell cycle progression", "conditions": "cited from earlier work"}, "7 kDa biomarker cluster": {"test_system": "7 kDa biomarker cluster", "experiment": "SELDI-TOF-MS plasma proteomic profile, 7 kDa biomarker cluster", "format": "in vivo, human", "conditions": "16 Phase 1b patients, last day of treatment", "procedure": "(§1) All samples were stored at −80° C. in aliquots.\n(§2) Proteins were then detected with the ProteinChip® Reader."}, "A549 cells": {"test_system": "A549 cells", "experiment": "Affymetrix microarray gene expression in CYC202 treated A549 cells", "format": "cell-based, human", "conditions": "45 and 75 micromolar", "procedure": "HT29 and A549 cells, which are derived from human colon and lung tumours respectively, were seeded at approximately 20% confluency, which was equivalent to 1.5×10^6 cells per 10 cm plate in DMEM containing 10% FCS, so that they were actively proliferating upon treatment with the compound the following day.\n[…]. RNA was extracted from the A549 cells used in the microarray experiment using TRIZOL reagent (Invitrogen) according to the manufacturer's instructions. For all other cell lines, total RNA was extracted from the cultures with the RNeasy Midi Kit (Qiagen, Hilden, Germany) according to the manufacturer's instructions. […] RNA was eluted in RNase-free water and quantified using RiboGreen (Molecular Probes, Leiden, The Netherlands). […]\nRNA extracted from A549 cells was used with the Hu Gene FL Cartridge while RNA from HT-29 cells and PBMC was loaded onto Hu Gene U133A Cartridges. […] The biotinylated cRNA was detected with an antibody amplification step using normal goat IgG as blocking reagent, final concentration 0.1 mg/ml (Sigma) and biotinylated anti-streptavidin antibody (goat), final concentration […] (Vector Laboratories). […] The readings from the quantitative scanning were analysed by the Affymetrix Gene Expression Analysis Software. […]\nData from the Affymetrix Chips were analysed at individual time points following CYC202 treatment."}, "[1]": {"experiment": "Pharmacokinetic analysis of breast cancer patient 02-2-01 (08)", "format": "in vivo, human", "conditions": "600 mg b.i.d. oral, Day 1", "procedure": "Effects on PNUTS and other target genes in vitro has been observed with concentrations of 7.5-15 μM for 1.5-3 hours, which is within the range represented here."}, "CDK 9": {"biological_target": "CDK 9 (Homo sapiens, UniProt P50750)", "sequence (P50750 whole entry, species assumed)": "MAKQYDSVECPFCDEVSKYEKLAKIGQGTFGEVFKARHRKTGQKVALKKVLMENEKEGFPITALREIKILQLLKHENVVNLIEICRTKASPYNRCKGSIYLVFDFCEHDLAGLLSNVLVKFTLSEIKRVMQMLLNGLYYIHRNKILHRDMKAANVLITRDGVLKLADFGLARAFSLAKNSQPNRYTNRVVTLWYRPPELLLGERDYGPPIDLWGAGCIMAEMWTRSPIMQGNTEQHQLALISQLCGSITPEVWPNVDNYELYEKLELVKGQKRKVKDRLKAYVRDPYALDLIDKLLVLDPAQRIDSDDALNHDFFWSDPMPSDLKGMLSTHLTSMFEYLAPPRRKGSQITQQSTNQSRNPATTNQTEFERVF", "sequence (O60563 whole entry partner, species assumed)": "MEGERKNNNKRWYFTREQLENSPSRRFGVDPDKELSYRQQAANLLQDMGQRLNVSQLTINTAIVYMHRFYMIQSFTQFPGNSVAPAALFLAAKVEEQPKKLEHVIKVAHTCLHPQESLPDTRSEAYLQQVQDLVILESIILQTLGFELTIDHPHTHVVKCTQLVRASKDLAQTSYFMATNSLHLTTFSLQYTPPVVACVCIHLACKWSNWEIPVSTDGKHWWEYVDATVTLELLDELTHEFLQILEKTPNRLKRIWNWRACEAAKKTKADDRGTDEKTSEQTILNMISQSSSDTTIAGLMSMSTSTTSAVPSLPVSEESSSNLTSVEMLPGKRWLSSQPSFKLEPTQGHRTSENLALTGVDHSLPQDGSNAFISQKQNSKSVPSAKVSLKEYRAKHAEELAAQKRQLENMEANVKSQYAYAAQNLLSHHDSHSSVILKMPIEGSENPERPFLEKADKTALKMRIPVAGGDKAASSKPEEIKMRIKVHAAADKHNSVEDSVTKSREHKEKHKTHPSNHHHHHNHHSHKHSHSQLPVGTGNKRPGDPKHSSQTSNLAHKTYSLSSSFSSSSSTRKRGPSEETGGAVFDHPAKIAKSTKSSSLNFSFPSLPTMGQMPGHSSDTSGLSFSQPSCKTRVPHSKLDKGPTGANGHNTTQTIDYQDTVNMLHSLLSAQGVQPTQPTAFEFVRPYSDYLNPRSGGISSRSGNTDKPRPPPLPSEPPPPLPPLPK", "conditions": "cited from earlier work"}, "PNUTS": {"test_system": "PNUTS", "experiment": "QPCR of PNUTS in whole blood (PAXgene) exposed in vitro to CYC202", "format": "cell-based, human", "conditions": "whole blood of several donors exposed in vitro to 30 μM CYC202 for […]", "procedure": "In addition, RNA from whole blood samples was analysed by QPCR. Blood from volunteers was collected into Vacutainer Heparin CPT tubes. […] The blood was then transferred into PAXgene tubes (PreAnalytiX), inverted several times, and placed at −20° C. after an initial incubation of 2 hours at room temperature to allow lysis of the cells. When ready for analysis, blood was left to thaw at room temperature for approximately 2 hours, and then processed according to the manufacturer's instructions. The optional DNase digestion step was included. RNA samples were quantified and then used directly in QPCR assays.\nIn addition, where the expression levels of housekeeper genes have been measured in these samples, the data has been normalized using a derivative of this formula: 2^ΔCttarget/2^ΔCthousekeeper Results\nBlood from volunteers was collected into Vacutainer Heparin CPT tubes at Hawkhill Medical Centre, Dundee and treated as described above in Example 2. […]\nBlood that had been stored for various lengths of time and under various storage conditions was left to thaw at room temperature for approximately 2 hours, and then processed according to the manufacturer's instructions. […] RNA samples were quantified and then used directly in QPCR assays."}, "CDK 7": {"biological_target": "CDK 7 (Homo sapiens, UniProt P50613)", "sequence (P50613 whole entry, species assumed)": "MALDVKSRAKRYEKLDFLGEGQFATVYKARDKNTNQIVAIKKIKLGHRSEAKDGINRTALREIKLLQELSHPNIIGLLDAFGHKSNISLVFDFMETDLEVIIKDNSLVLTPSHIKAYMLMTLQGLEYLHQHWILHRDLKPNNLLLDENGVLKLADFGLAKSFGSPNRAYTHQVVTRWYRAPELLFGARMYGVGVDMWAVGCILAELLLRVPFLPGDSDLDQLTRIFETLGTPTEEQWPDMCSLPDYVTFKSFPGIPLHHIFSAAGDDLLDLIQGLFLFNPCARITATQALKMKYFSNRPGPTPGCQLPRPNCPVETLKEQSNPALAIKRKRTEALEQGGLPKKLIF", "sequence (P51946 whole entry partner, species assumed)": "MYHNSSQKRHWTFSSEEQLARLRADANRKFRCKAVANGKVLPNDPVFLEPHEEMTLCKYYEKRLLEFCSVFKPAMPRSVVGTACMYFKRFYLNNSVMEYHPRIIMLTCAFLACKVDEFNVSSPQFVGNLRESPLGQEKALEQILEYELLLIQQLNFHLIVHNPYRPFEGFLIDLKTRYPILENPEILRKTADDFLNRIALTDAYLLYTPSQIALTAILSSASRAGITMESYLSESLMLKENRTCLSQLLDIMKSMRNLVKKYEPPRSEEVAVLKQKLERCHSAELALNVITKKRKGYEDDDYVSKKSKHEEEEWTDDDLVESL", "conditions": "cited from earlier work"}, "Apolipoprotein A1": {"test_system": "Apolipoprotein A1", "experiment": "SELDI-TOF-MS plasma proteomic profile, 28 kDa biomarker cluster", "format": "in vivo, human", "conditions": "plasma fraction 4, SAX chip pH9, 16 Phase 1b patients", "procedure": "as §1, §2"}},
  "data": [
    {"smiles": "CC[C@H](CO)Nc1nc(NCc2ccccc2)c2ncn(C(C)C)c2n1", "note": "[CYC202, 2-(R)-(1-ethyl-2-hydroxyethylamino)-6-benzylamino-9-isopropylpurine]", "values": [
      {"measurement": "effect on cell cycle progression", "setting": "cell cycle progression", "value": "block cell cycle progression in late G1/early S and in M-phase"},
      {"measurement": "normalised intensity M/Z 6984, after treatment group", "setting": "7 kDa biomarker cluster; neat plasma, CM10 chip, other group 3.1+/−1.2, p=0.0000014", "value": "42.2+/−11.8"},
      {"measurement": "normalised intensity M/Z 6787, after treatment group", "setting": "7 kDa biomarker cluster; neat plasma, CM10 chip, other group 5.6+/−1.9, p=0.0000014", "value": "27.5+/−10.4"},
      {"measurement": "normalised intensity M/Z 6998, after treatment group", "setting": "7 kDa biomarker cluster; plasma fraction 6, H50 chip, other group 2.1+/−0.7, p=0.0000031", "value": "42.0+/−9.1"},
      {"measurement": "normalised intensity M/Z 6799, after treatment group", "setting": "7 kDa biomarker cluster; plasma fraction 6, H50 chip, other group 2.9+/−1.2, p=0.0000031", "value": "29.1+/−8.1"},
      {"measurement": "gene expression (microarray, genes of FIG. 9/11)", "setting": "A549 cells; 2 hr", "value": "significantly down regulated"},
      {"measurement": "gene expression (microarray, genes of FIG. 10/12)", "setting": "A549 cells; 4 hr", "value": "significantly down regulated"},
      {"measurement": "plasma levels of CYC202", "setting": "[1]", "value": "maintained efficacious levels of CYC202 over several hours"},
      {"measurement": "inhibition of CDK 9", "setting": "CDK 9", "value": "inhibit"},
      {"measurement": "expression of PNUTS normalised to housekeeper (HPRT)", "setting": "PNUTS", "value": "reproducibly down-regulated"},
      {"measurement": "inhibition of CDK 7", "setting": "CDK 7", "value": "inhibit"},
      {"measurement": "normalised intensity M/Z 28126, after treatment group", "setting": "Apolipoprotein A1; last day of treatment, before treatment 32.0+/−9.6, p=0.0058", "value": "20.4+/−9.9"},
      {"measurement": "normalised intensity M/Z 27923, after treatment group", "setting": "Apolipoprotein A1; last day of treatment, before treatment 50.6+/−11.8, p=0.00097", "value": "31.8+/−13.7"},
      {"measurement": "change of marker M/Z 28799 after vs before treatment", "setting": "Apolipoprotein A1; p=0.19", "value": "not deemed to be statistically significant"},
      {"measurement": "change of marker M/Z 28292 after vs before treatment", "setting": "Apolipoprotein A1; p=0.95", "value": "not deemed to be statistically significant"}
    ]}
  ]
}
